Results as given in patent US20130310352A1, “DEXAMETHASONE COMBINATION THERAPY” (priority 2010, published 2013).

Columns and labels:
Format in all cases: cell-based, human
MM.1S cells [1] = assay: Apoptosis in coculture with BMSCs (positive control); settings: 40 μg/ml dexamethasone, 24 hours, BMSC coculture
Description: For this purpose, BMSCs isolated from MM patient were cocultured with MM cell lines ARP1, MM.1S and MM.1R. The cells were treated with or without 10 μM of compound A for 24 hours. As a positive control, MM.1S cells were cocultured with or without BMSC and treated with or without 40 μg/ml of dexamethasone for 24 hours. After treatment, the MM cells were identified as CD138+ cells by APC-CD138 staining.
(§1) MM cell lines ARP1, MM.1S and MM.1R were cultured with 10 μM compound A for 3 days. rhIL-6 were added to final concentration of 5 ng/ml. As a positive control, MM.1S cells were treated with 40 μg/ml dexamethasone in the presence of 5 ng/ml of rhIL6 for the same time. Cells apoptosis rate was measured by annexin V staining. (B). Same MM cells were co-cultured with or without MM BMSC, and treated with 10 μM of compound A for 1 day. As a positive control, MM.1S cells were cocultured with or without BMSC and treated with 40 μg/ml dexamethasone for 1 day. CD138+ MM cells apoptosis rate was measured by Annexin V staining.

MM.1S cells [2] = assay: Apoptosis with or without IL-6 addition (positive control); settings: 40 μg/ml dexamethasone, rhIL-6
Description: IL-6 is an important survival cytokine for MM (Klein B, Zhang X G, Jourdan M, et al. Interleukin-6 is the central tumor growth factor in vitro and in vivo in multiple myeloma. Eur Cytokine Netw. 1990; 1 (4):193-201; Gado K, Domjan G, Hegyesi H, Falus A. Role of INTERLEUKIN-6 in the pathogenesis of multiple myeloma. Cell Biol Int. 2000; 24 (4):195-209). […] For this purpose, different MM cell lines ARP1, MM.1S and MM.1R were cultured with or without recombinant hIL-6 (final concentration […]) and treated with or without 10 μM compound A for 2 days. As a positive control, MM.1S cells were treated with 40 μg/ml of dexamethasone with or without hIL-6 addition for the same period of time.
as §1

[3] = system: MM cells ARP1, MM.1S and MM.1R; assay: Low-dose single agents, apoptosis; settings: 40 μg/ml dexamethasone alone, 1 day
Description: Compound A-induced cell apoptosis was detected by Annexin V binding assay as previously described (Zheng Y, Cai Z, Wang S, et al. Macrophages are an abundant component of myeloma microenvironment and protect myeloma cells from chemotherapy drug-induced apoptosis. Blood. 2009; 114 (17):3625-3628). Briefly, MM cells were cultured in 24-well plates and treated with 0 to 1 mM final concentrations of compound A for 24 or 72 hours. The cells were washed twice with cold PBS and resuspended in Annexin V binding buffer (Invitrogen). MM cells were stained with FITC-conjugated Annexin V and propidium iodide (PI) for 15 min at room temperature. Apoptotic cells were determined as Annexin V positive cells.
Next, the experiment was extended to other MM cell lines, and they were treated with low compound A (1 μM) and dexamethasone (40 μg/ml).
ARP1 cells were treated with 10 μM compound A (BK), 15 nM melphalan (Me), 40 μg/ml dexamethasone (De), 100 μM lenalidomide (Le), 10 μM Bortizomib (BT), or their combinations for 1 day. The cell apoptosis were measured as described. […] Cell apoptosis was measured. […] Same MM cell lines were treated with compound A for 1 day and cell growth were measured by MTS. […] Cell apoptosis were measured by annexin V staining. […] Cells apoptosis rates were measured by annxin V staining. […]

For `C[C@@H]1C[C@H]2[C@@H]3CCC4=CC(=O)C=C[C@]4(C)[C@@]3(F)[C@@H](O)C[C@]2(C)[C@@]1(O)C(=O)CO` [dexamethasone, (8S,9R,10S,11S,13S,14S,16R,17R)-9-Fluoro-11,17-dihydroxy-17-(2-hydroxyacetyl)-10,13,16-trimethyl-6,7,8,9,10,11,12,13,14,15,16,17-dodecahydro-3H-cyclopenta[a]phenanthren-3-one], the “effect of BMSCs on dexamethasone induced cell apoptosis” value (MM.1S cells [1]) was “protected MM.1S cells”, the “effect of IL6 addition under dexamethasone treatment” value (MM.1S cells [2]) was “promoted MM.1S cells survival” and the “cytotoxic effect of low dose alone” value [3] was “only limited cytotoxic effect”.
